“Also recorded” adds a separate entry of the source.
How the values were obtained:
GBM patients [1] = settings: combined with temozolomide (Stupp 2014); cited from earlier work
GBM patients [2] = settings: phase III clinical trial (Levin 2006); cited from earlier work
recurrent GBM patients = settings: Phase II, with temozolomide (Groves 2002); cited from earlier work
[3] = tested on: CD90-expressing parental U251 cells; test: Boyden chamber migration assay, parental U251 cells; type: cell-based, human; settings: for U251 cell migration: 10 μM inhibitor, 15 minutes pre-incubation, kept during 24-hours Boyden chamber assay
Description: (§1) FIG. 3: CD90 signals through SRC, FAK and RhoA molecules and CD90 dependent migration is blocked by dasatinib in vitro and in vivo. Parental (wt), control (shCTR #), CD90-down expressing (shCD90 #, n=3) U251 cells; as well as parental (wt), control (CTR #) and CD90 expressing (CD90 #, n=3) U87 cells were cultured at low cell density, lysed and analyzed by Western-blot for phosphoSRC, SRC, phosphoFAK, FAK and β-actin expression. Protein phosphorylation levels were calculated as described in Materials and Methods part (A). CD90low (black) and CD90high (blank) RNS (n=12, square symbol) and RADH (n=6, circle symbol) cells were analyzed by Western-blot for phosphoSRC, SRC, phosphoFAK, FAK and β-actin expression. Protein phosphorylation levels were calculated in (B). CD90-expressing parental U251 and CD90 #1 U87 cells were tested in a 24-hours Boyden chamber migration assay as described in FIG. 2 in the presence of DMSO (as control), PP2, dasatinib (both SRC inhibitors), Y15 (FAK inhibitor) and Y-27632 (ROCK inhibitor) (C). CD90-expressing parental U251 and CD90 #1 U87 cells were transfected without (siØ), with siRNA GL2 (control) or siRNA RhoA during 48 hours, and tested in a 24-hours Boyden chamber migration assay (D). RhoA expression was tested by Western-blot (D). Migration was given by the number of migrated cells obtained per field (C and D). CD90high RNS (n=4, square symbol) and RADH (n=4, circle symbol) cells were tested in a 24-hours Boyden chamber migration assay in the presence of DMSO or dasatinib (E). Representative fields are shown in (E). CD90 expressing U87 cells were orthotopically implanted in immunocompromised mice brain. One week after injection, mice were fed with control vehicle (n=7) or dasatinib (40 mg/kg/day, n=7) for 20 days. Control and dasatinib-treated mice were sacrificed 28 days after injection. Brains were collected and sections were analyzed after H&E staining (F). (*): p<0.05; (**): p<0.01; (***): p<0.001.
Boyden chamber migration assay—Parental, controls and transfected U251 and U87 cell lines were washed in DMEM, placed in Boyden chambers (10^5 cells/chamber in DMEM) that were placed in DMEM 20% FBS and incubated at 37° C. for 24 hours. After 24 hours, Boyden chambers were washed in PBS and cells were fixed in PBS 0.5% paraformaldehyde. Non-migrated cells inside the chambers were removed and cells were then stained with Giemsa (RAL Diagnostics, Martillac, France). After washes in PBS, pictures of 5 different fields were taken. Migration was given by the mean of number of migrated cells observed per field. […]

U87 CD90 cells [4] = test: Boyden chamber migration assay, U87 CD90 cells; type: cell-based, human; settings: for U87 CD90 cell migration: 10 μM inhibitor, 15 minutes pre-incubation, kept during 24-hours Boyden chamber assay
Description: as §1
Preparation of CD90 knocked-down U251 and CD90 expressing U87 GBM cell lines—U251 cells were transfected with pLKO.1-puro plasmids containing shRNA constructs targeting CD90 mRNA and targeting non-mammalian mRNA (Sigma-Aldrich) using the Lipofectamine 2000 reagent (Life Technologies, St Aubin, France) according to the manufactor's instructions. After one week of culture under the selective antibiotic puromycin used at 10 μg/ml, transfected U251 cells were amplified and then cloned in 96-well plates at 0.1 cell/well. CD90 knocked-down U251 cell lines were expanded and selected for their decreased expression of CD90. U87 cells were transfected with CD90 cDNA (GeneWiz, Sigma-Aldrich) cloned into the pLKO.1-puro plasmid with EcoRI and BamHI enzymes using the Lipofectamine 2000 reagent. […]

[5] = tested on: primary CD90high GBM lines; test: Boyden chamber migration assay, primary CD90high GBM lines (RNS and RADH); type: cell-based, human; settings: CD90high RNS (n=4) and RADH (n=4) cells, 24-hours Boyden chamber assay
Description: FIG. 3: CD90 signals through SRC, FAK and RhoA molecules and CD90 dependent migration is blocked by dasatinib in vitro and in vivo. Parental (wt), control (shCTR #), CD90-down expressing (shCD90 #, n=3) U251 cells; as well as parental (wt), control (CTR #) and CD90 expressing (CD90 #, n=3) U87 cells were cultured at low cell density, lysed and analyzed by Western-blot for phosphoSRC, SRC, phosphoFAK, FAK and β-actin expression. Protein phosphorylation levels were calculated as described in Materials and Methods part (A). CD90low (black) and CD90high (blank) RNS (n=12, square symbol) and RADH (n=6, circle symbol) cells were analyzed by Western-blot for phosphoSRC, SRC, phosphoFAK, FAK and β-actin expression. Protein phosphorylation levels were calculated in (B). […] Brains were collected and sections were analyzed after H&E staining (F). […]
Tumor specimens and cell culture—GBM samples were obtained after informed consent from patients admitted to the neurosurgery department at Rennes University Hospital for surgical resection in accordance with the local ethic committee. […] The extent of surgery was evaluated with an enhanced magnetic resonance imaging (MRI) performed within 24 hours after the resection. […]

glioma cell invasion = settings: preclinical phase; cited from earlier work
U87 CD90 cells [6] = test: Orthotopic xenograft mouse model with U87 CD90 cells; type: in vivo, mice
Description: as §1, with “CD90high RNS (n=4, square symbol) and RADH (n=4, circle symbol) cells were tested in a 24-hours Boyden chamber migration assay in the presence of DMSO or dasatinib (E). Representative fields are shown in (E). CD90 expressing U87 cells were orthotopically implanted in immunocompromised mice brain. One week after injection, mice were fed with control vehicle (n=7) or dasatinib (40 mg/kg/day, n=7) for 20 days. Control and dasatinib-treated mice were sacrificed 28 days after injection.” left out, “(*): p<0.05; (**): p<0.01; (***): p<0.001.” left out
Orthotopic mouse model—Eight-weeks old male Balb/c NOD-SCID mice (Janvier, Saint Berthevin, France) were housed in an animal care unit authorized by the French Ministries of Agriculture and Research (Biosit, Rennes, France—Agreement No. B35-238-40). […] Mice were daily clinically monitored and sacrificed 28 days after implantation. […] Tumor burden was compared in the different groups of mice and analyzed using ImageJ software. […]
To evaluate the CD90-dependent effects of dasatinib in vivo, U87 CD90 cells were used in an orthotopic xenograft mouse model. […] Mice were analyzed using MRI 28 days post-injection and were sacrificed. […]

[7] = tested on: bevacizumab-treated recurrent GBM patients; settings: phase II trial (Lassman 2015); cited from earlier work
CD90high RNS cells = test: Viability of CD90high RNS cells; type: cell-based, human
[8] = dasatinib 40 mg/kg fed daily for 20 days from one week post-implantation, 28 days post-injection
[9] = 1 μM, 24-hours Boyden chamber assay

In the case of `CC(C)[C@H]1C(=O)N[C@@H](CCCN=C(N)N)C(=O)NCC(=O)N[C@@H](CC(=O)O)C(=O)N[C@H](Cc2ccccc2)C(=O)N1C` [Cilengitide], the “Effects on GBM patients” value (GBM patients [1]) is given as “limited effects”.
For `CNC(=O)[C@@H](NC(=O)[C@H](CC(C)C)[C@H](O)C(=O)NO)C(C)(C)C` [marimastat], the Patient survival (GBM patients [2]) is given as “failed to improve” and the “Effects on recurrent GBM patients” value (recurrent GBM patients) is given as “encouraging effects”.
In the case of `C[C@@H](N)[C@H]1CC[C@H](C(=O)Nc2ccncc2)CC1` [Y27632], the inhibition at 10 µM ([3]; Homo sapiens, U-251, U251 cells, 10 μM, 24-hours Boyden chamber assay, read-out: Migration inhibition (reduction)) is reported as 53% and the inhibition at 10 µM (U87 CD90 cells [4]; Homo sapiens, U87 CD90 cells, 10 μM, 24-hours Boyden chamber assay, read-out: Migration inhibition (reduction)) is reported as 76%.
For `CC(C)(C)n1nc(-c2ccc(Cl)cc2)c2c(N)ncnc21` [PP2], the U251 cell migration [3] was “dramatically reduced” and the “U87 CD90 cell migration” value (U87 CD90 cells [4]) was “dramatically reduced”.
For `Cc1nc(Nc2ncc(C(=O)Nc3c(C)cccc3Cl)s2)cc(N2CCN(CCO)CC2)n1` [dasatinib, N-(2-chloro-6-methylphenyl)-2-[[6-[4-(2-hydroxyethyl)piperazin-1-yl]-2-methylpyrimidin-4-yl]amino]-1,3-thiazole-5-carboxamide], the U251 cell migration [3] was “dramatically reduced”, the “U87 CD90 cell migration” value (U87 CD90 cells [4]) was “dramatically reduced” and the “Migration of primary CD90high GBM lines” value [5] was “dramatically reduced”. For the same molecule, the “Inhibiting bevacizumab-induced glioma cell invasion” value (glioma cell invasion) was “promising effect”, the “CD90 tumor migration/invasion properties in vivo” value (U87 CD90 cells [6]; U87 CD90 orthotopic xenograft, dasatinib 40 mg/kg) was “dramatically reduces; also recorded: blocks; also recorded: inhibits” and the “Mice with clear encapsulated tumors with regular edges, H&E staining” value (U87 CD90 cells [6]; [8]) was 4 out of 7. The “Mice with clear encapsulated tumors with regular edges, MRI” value (U87 CD90 cells [6]; [8]) was 3 out of 4, the “Improvement of bevacizumab-treated recurrent GBM patients” value [7] was “failed to improve” and the “Viability of CD90high RNS cells” value (CD90high RNS cells) was “affects viability”.
For `Cl.Cl.Cl.Cl.Nc1cc(N)c(N)cc1N` [Y15], the “Effect on the migration of U251 cells” value [3, 9] was “no or limited effect” and the “Effect on the migration of U87 CD90 cells” value (U87 CD90 cells [4]; [9]) was “no or limited effect”.

Reference: patent US11467160B2, “Method of therapy selection for patient suffering from glioblastoma” (INSERM (Institut National de la Santé et de la Recherche …, priority 2017, dated 2022)
